According to patent US20240067645A1, “HETEROCYCLIC COMPOUND AS DIACYLGLYCEROL KINASE INHIBITOR AND USE THEREOF” (LG CHEM, LTD., priority 2020, published 2024):

target: DGKα (Homo sapiens (Human), UniProt P23743); assay: Measurement of inhibitory effect against DGKα enzyme (ADP-Glo); format: biochemical; details: DGKα enzyme, ADP-Glo luminescence, OAG/ATP substrate, 20 min room temperature; read-out: IC50
Description: Experimental Example: Measurement of Inhibitory Effect Against DGKα Enzyme
First, 3×OAG (3 mM)/ATP (0.45 mM) substrate solution was prepared from 1× substrate assay buffer (40 mM MOPS (pH 7.2), 20 mM MgCl2, 1 mM DTT, 0.4 mM CaCl2), 3 mM sodium deoxycholate, 100 mM NaCl, 0.1 mg/mL BSA, 0.12% NP-40), and vortexed thoroughly for 3 minutes to induce detergent-lipid micelle formation. Then, 3×DGKα (7.5 nM) enzyme solution was prepared from 2× enzyme assay buffer (80 mM MOPS (pH 7.2), 2 mM DTT, 200 mM NaCl, 0.2 mg/mL BSA) and vortexed for a short time.
After preparing the above two solutions, a half-area opaque 96-well assay plate was prepared, and 10 μL of 3× diluted compound solution (30 μM to 0 μM) was transferred to each well. Next, 10 μL of 3×DGK enzyme solution was transferred to the same plate, mixed by pipetting, and then 10 μL of 3×OAG/ATP substrate solution was added to the assay plate and mixed well. The plate was incubated at room temperature for 20 minutes for the enzyme reaction. Next, 15 μL of ADP-Glo reagent was added to each well and mixed by pipetting, followed by incubating the plate at room temperature for 40 minutes to deplete the remaining ATPs. After this step, 30 μL of kinase detection reagent was added and mixed, and the plate was incubated at room temperature for an additional 20 minutes and luminescence was measured by Envision to calculate the IC50 value of each compound.
The measurement results are represented in Table 1 (+: IC50>5 μM, ++: 5 μM>IC50>300 nM, +++: IC50<300 nM).

Sequence of DGKα (P23743 whole entry, species assumed): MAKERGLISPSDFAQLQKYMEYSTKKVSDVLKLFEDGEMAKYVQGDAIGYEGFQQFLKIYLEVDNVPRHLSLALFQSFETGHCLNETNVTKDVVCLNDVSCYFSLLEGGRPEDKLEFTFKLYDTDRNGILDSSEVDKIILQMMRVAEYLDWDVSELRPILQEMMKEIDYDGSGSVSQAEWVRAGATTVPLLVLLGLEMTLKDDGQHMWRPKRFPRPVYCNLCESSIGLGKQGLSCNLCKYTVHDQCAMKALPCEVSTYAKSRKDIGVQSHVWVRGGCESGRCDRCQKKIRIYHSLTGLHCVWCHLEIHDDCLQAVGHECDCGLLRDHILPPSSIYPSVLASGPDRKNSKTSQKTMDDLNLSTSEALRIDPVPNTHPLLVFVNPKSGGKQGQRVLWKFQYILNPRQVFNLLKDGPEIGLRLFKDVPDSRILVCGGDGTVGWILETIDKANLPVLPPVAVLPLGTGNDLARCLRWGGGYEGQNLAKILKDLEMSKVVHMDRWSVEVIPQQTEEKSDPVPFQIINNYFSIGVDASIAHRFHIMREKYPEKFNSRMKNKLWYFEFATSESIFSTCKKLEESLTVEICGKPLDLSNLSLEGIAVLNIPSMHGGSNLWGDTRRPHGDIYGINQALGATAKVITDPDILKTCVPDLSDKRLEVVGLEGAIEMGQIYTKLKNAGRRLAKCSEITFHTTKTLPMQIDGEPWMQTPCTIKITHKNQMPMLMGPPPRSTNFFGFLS

IC50 [µM] | Compound
0.3 to 5 | CNC(=O)c1cnc2c(c1)n(C)c(=O)c(=O)n2C1CCN(Cc2ccc(OC(F)(F)F)cc2)CC1 [Example 65, N,1-dimethyl-2,3-dioxo-4-(1-(4-(trifluoromethoxy)benzyl)piperidin-4-yl)-1,2,3,4-tetrahydropyrido[2,3-b]pyrazine-7-carboxamide]
< 0.3 | Cn1c(=O)c(=O)n(C2CCN(Cc3ccc(OC(F)(F)F)cc3)CC2)c2ncc(C(N)=O)cc21 [Example 66, 1-methyl-2,3-dioxo-4-(1-(4-(trifluoromethoxy)benzyl)piperidin-4-yl)-1,2,3,4-tetrahydropyrido[2,3-b]pyrazine-7-carboxamide]
< 0.3 | Cc1cnc2c(c1)n(C)c(=O)c(=O)n2C1CCN(Cc2cccc(Cl)c2)CC1 [Example 67, 4-(1-(3-chlorobenzyl)piperidin-4-yl)-1,7-dimethyl-1,4-dihydropyrido[2,3-b]pyrazine-2,3-dione]
